Experimental data taken from paper PMC10824102, “Identification of small molecule inhibitors of G3BP-driven stress granule formation” (The Journal of Cell Biology, 2024).

Tests used:
[1] = test system: G3BP1 and FUS R495X puncta in U2OS cells with tdTomato-tagged endogenous G3BP1; experiment: Pretreatment before FUS R495X transfection, cytoplasmic puncta area; assay type: cell-based; conditions: 50 μM, 20 min before FUS R495X transfection, 24 h
Experimental: U2OS cells with knock-in of G3BP1-tdTomato ([Yang et al., 2020]) were seeded into 96-well plates (3904; Corning). Either GFP-VCP-A232E or GFP-FUS-R495X were transfected into cells using ViaFect transfection reagent (Promega) 24 h prior to the start of the experiment. For samples to be treated with compounds G3Ia or G3Ia′, Hoechst (1:5,000; Biotium) was added and incubated for 30 min prior to the start of the experiment, washed once with PBS, and the media was changed to 100 μl FluoroBrite DMEM media (Gibco) upon starting the experiment. Imaging of plates was performed on a Cytation C10 spinning disk confocal (BioTek) with a Hamamatsu Orca-Flash 4.0 camera using Gen5 software (version 3.11). Imaging was performed through an Olympus Plan Apo 40× 0.6 NA dry objective with an adjustable collar set to 0.5 μm thickness. Laser autofocus prior to imaging the tdTomato channel was utilized for each image. The temperature was maintained at 37°C on the instrument and the cells were supplied with 5% CO2. A 7 × 7 tilescan was taken at the center of each well, capturing the tdTomato and GFP channels (and Hoechst when present). After completing the tilescan, 100 μl FluoroBrite with 100 μM (2×) G3I compound (vortexed for 5 s) was added to each well and incubated for 20 min before starting another round of imaging in the same locations as the first round. Samples treated with G3Ib or G3Ib′ were analyzed manually, scoring each cell with spontaneous granules for the presence or absence of granules following treatment with the compound. For experiments in which G3I compounds were pretreated prior to transfection, 50 μM of indicated compound or vehicle control were added to U2OS cells 20 min prior to the addition of the transfection reagent. After 24 h of transfection, the cells were washed with PBS, fixed in 4% formaldehyde, and incubated with Hoechst (1:5,000; Biotium) in PBS for 30 min prior to the start of the experiment, washed once with PBS, and at room temperature imaging on the Cytation C10 spinning disk confocal was performed as described above.
Samples treated with G3Ia or G3Ia′ were analyzed using an automated pipeline. Segmentation was performed in both ilastik and Cellpose 2.0. Nuclear segmentation using the Hoechst channel and granule segmentation in both GFP and tdTomato channels was performed via pixel classification in ilastik using small cropped portions of the tilescan as the training dataset for each. Individual cell segmentation was performed in Cellpose 2.0 by inputting a merged RGB of the Hoechst and G3BP1-tdTomato channels. The Cellpose output was then eroded by one pixel and set as a binary mask in Fiji. […]

[2] = molecular target: T1, interaction between G3BP1 and endogenous caprin 1 (Homo sapiens, UniProt Q13283); experiment: Coimmunoprecipitation of G3BP1-GFP with endogenous caprin 1 in U2OS lysates; assay type: biochemical; conditions: increasing concentrations added to U2OS G3BP1-GFP lysates, GFP IP
T1 construct: expressed in transfected cells; host or cells: U2OS cells stably expressing G3BP1-GFP (lysate)
Experimental: (§1) U2OS cells expressing G3BP1-GFP were grown in 3-cm dishes to 100% confluency, at which point cells were collected and pelleted at 400 × g for 5 min. Pellets were either stored at −80°C or processed the same day by lysing with 200 μl in vivo lysis buffer (150 mM NaCl, 50 mM Tris [pH 7.5], 1 mM EDTA, 0.5% NP-40, and 10% glycerol, supplemented with 1 protease inhibitor tablet [11836170001; Roche]). Lysates were centrifuged at 13,000 × g at 4°C for 15 min, after which supernatants were transferred to a new tube and diluted with 200 μl lysis buffer containing indicated concentrations of G3I compounds. The mixture was then incubated with GFP-Trap (ChromoTek GFP-Trap Magnetic Agarose; Proteintech; gtma) for 2 h at 4°C. Beads were washed three times with lysis buffer, then incubated with 1× SDS sample buffer supplemented with 10% 2-mercaptoethanol, and boiled for 5 min at 95°C. Lysates were subjected to SDS-PAGE and then immunoblotted.
(§2) Samples were separated by SDS-PAGE and transferred to membranes. […] Membranes were visualized and quantified with an Odyssey Fc imaging system (LI-COR) and normalized to the amount of G3BP1 immunoprecipitated.

[3] = molecular target: T2, interaction between G3BP1 and endogenous USP10 (Homo sapiens, UniProt Q13283); experiment: Coimmunoprecipitation of G3BP1-GFP with endogenous USP10 in U2OS lysates; assay type: biochemical; conditions: increasing concentrations added to U2OS G3BP1-GFP lysates, GFP IP
T2 construct: expressed in transfected cells; host or cells: U2OS cells stably expressing G3BP1-GFP (lysate)
Experimental: as §1, §2

T1 sequence (Q13283 whole entry): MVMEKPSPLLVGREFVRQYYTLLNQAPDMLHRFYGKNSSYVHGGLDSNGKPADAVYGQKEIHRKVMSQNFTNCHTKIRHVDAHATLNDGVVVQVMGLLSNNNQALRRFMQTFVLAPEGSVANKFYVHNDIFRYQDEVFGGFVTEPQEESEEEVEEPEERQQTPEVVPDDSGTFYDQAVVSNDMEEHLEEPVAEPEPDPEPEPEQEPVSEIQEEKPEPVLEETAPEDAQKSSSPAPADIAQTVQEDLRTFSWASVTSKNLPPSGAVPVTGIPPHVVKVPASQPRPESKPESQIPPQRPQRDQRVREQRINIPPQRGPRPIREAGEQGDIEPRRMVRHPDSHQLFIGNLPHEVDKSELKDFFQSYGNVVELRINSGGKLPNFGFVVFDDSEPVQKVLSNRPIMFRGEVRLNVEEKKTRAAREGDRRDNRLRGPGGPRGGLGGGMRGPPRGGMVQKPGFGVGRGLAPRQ
T2 sequence (Q13283 whole entry): as above

## COCCC(NC(=O)C(C)NC(=O)C(NC(=O)C(NC(=O)C(F)CC(C)(C)C)C(C)(C)O)C(C)c1ccccc1)C(=O)N(C)Cc1ccccc1 (centres unmarked) [G3Ia]
[1]
  area of G3BP1 found in puncta compared with vehicle-treated cells: reduced the area of G3BP1 found in puncta
  formation and incorporation of FUS R495X into cytoplasmic granules: failed to block the formation and incorporation of FUS R495X into cytoplasmic granules

## CC(NC(=O)C(NC(=O)C(NC(=O)CCC(C)(C)C)C(C)(C)O)C(C)c1ccccc1)C(=O)N1CCCC1c1ccccc1 (centres unmarked) [G3Ib]
[2]
  interaction between G3BP1 and endogenous caprin 1: dose-dependent reduction
[3]
  interaction between G3BP1 and endogenous USP10: dose-dependent reduction
[1]
  area of G3BP1 found in puncta compared with vehicle-treated cells: reduced the area of G3BP1 found in puncta
  formation and incorporation of FUS R495X into cytoplasmic granules: failed to block the formation and incorporation of FUS R495X into cytoplasmic granules

## CC(NC(=O)C(NC(=O)C(NC(=O)CCC(C)(C)C)C(C)(C)O)C(C)c1ccccc1)C(=O)N1CCCC1c1ccccc1 (centres unmarked) [G3Ib′]
[2]
  interaction between G3BP1 and endogenous caprin 1: no such effect
[3]
  interaction between G3BP1 and endogenous USP10: no such effect
